Data published in patent publication US20240076440A1, “PROCESS OF FORMING A CONJUGATED POLYMER” (Sumitomo Chemical Co., ltd., priority 2019, published 2024).

Assay: Solubilities of Monomers 1 and 2 in toluene, MeOH and water
Format: physicochemical

SMILES: C[N+](C)(C)CCC1(CC[N+](C)(C)C)c2cc(Br)ccc2-c2ccc(Br)cc21 [Monomer 2]
- Solubility in Toluene (Conc 0.1 mg/ml): Insoluble
- Solubility in Toluene (Conc 1 mg/ml): Insoluble
- Solubility in Water (Conc 1 mg/ml): Soluble
- Solubility in MeOH (Conc 50 mg/ml): Soluble
- Solubility in Water (Conc 50 mg/ml): Insoluble

SMILES: CCCCCCCCC1(CCCCCCCC)c2cc(B3OCCO3)ccc2-c2ccc(B3OCCO3)cc21 [Monomer 1]
- Solubility in MeOH (Conc 0.1 mg/ml): Soluble
- Solubility in Toluene (Conc 0.1 mg/ml): Soluble
- Solubility in MeOH (Conc 1 mg/ml): Soluble
- Solubility in Toluene (Conc 1 mg/ml): Soluble
- Solubility in Water (Conc 1 mg/ml): Insoluble
- Solubility in MeOH (Conc 50 mg/ml): Soluble
- Solubility in MeOH (Conc 75 mg/ml): Not Soluble
- Solubility in Toluene (Conc 75 mg/ml): soluble
- Solubility in Toluene (Conc 1 g/ml): Soluble
- Solubility in Toluene (Conc 2 g/ml): Soluble
